According to patent US6355799B1, “Substituted benzene compounds, process for their preparation, and herbicidal and defoliant compositions containing them” (ISK Americas Incorporated, priority 1997, dated 2002):

What was measured:
Format in all cases: in vivo
[1] = system: ivyleaf morningglory (Ipomoea hederacea, IPOHE); experiment: Pre-emerge test, greenhouse herbicide activity screening; conditions: pre-emerge, rated 14 days after application, 0 = no damage, 100 = complete death
Summary of the method: (§1)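 Applied at 15–1000 g ai/ha from acetone in 187 l/ha spray volume. Post-emergence applications included 0.25% v/v non-ionic surfactant and reached plants sown 8–21 days before. Pre-emergence applications were incorporated by surface watering. Efficacy or crop damage was rated on a 0–100 scale after 14 days.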

[2] = system: common ragweed (Ambrosia artemisizfolia L., AMBEL); experiment: as above; conditions: pre-emerge, rated 14 days after application, 0 = no damage, 100 = complete death
Summary of the method: as §1

[3] = system: velvetleaf (Abutilon theophrasti, ABUTH); experiment: as above; conditions: pre-emerge, rated 14 days after application, 0 = no damage, 100 = complete death
Summary of the method: as §1

[4] = system: barnyardgrass (Echinochloa crus-galli, ECHCG); experiment: as above; conditions: pre-emerge, rated 14 days after application, 0 = no damage, 100 = complete death
Summary of the method: as §1

[5] = system: lambsquarters (Chenopodium album, CHEAL); experiment: as above; conditions: pre-emerge, rated 14 days after application, 0 = no damage, 100 = complete death
Summary of the method: as §1

[6] = system: johnsongrass (Sorghum halepense, SORHA); experiment: as above; conditions: pre-emerge, rated 14 days after application, 0 = no damage, 100 = complete death
Summary of the method: as §1

[7] = system: green foxtail (Setaria viridis, SETVI); experiment: as above; conditions: pre-emerge, rated 14 days after application, 0 = no damage, 100 = complete death
Summary of the method: as §1

[8] = system: sicklepod (Cassia obtusifolia, CASOB); experiment: as above; conditions: pre-emerge, rated 14 days after application, 0 = no damage, 100 = complete death
Summary of the method: as §1

[9] = system: large crabgrass (Digitaria sanguinalis, DIGSA); experiment: as above; conditions: pre-emerge, rated 14 days after application, 0 = no damage, 100 = complete death
Summary of the method: as §1

[10] = system: ivyleaf morningglory (Ipomoea hederacea, IPOHE); experiment: Post-emerge test, greenhouse herbicide activity screening; conditions: phytotoxicity rating 0-100 (0 no damage, 100 complete death), 14 days after application
Summary of the method: (§2)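 Plants grown in 10 cm pots of sandy loam mix received acetone-dissolved compounds through a moving flat-fan nozzle. Doses ranged from 15 to 1000 g ai/ha. Pre-emerge pots were seeded one day earlier, post-emerge pots 8–21 days earlier. Fourteen days on, each pot was graded 0–100 for damage.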

[11] = system: common ragweed (Ambrosia artemisizfolia L., AMBEL); experiment: as above; conditions: phytotoxicity rating 0-100 (0 no damage, 100 complete death), 14 days after application
Summary of the method: as §2

[12] = system: velvetleaf (Abutilon theophrasti, ABUTH); experiment: as above; conditions: phytotoxicity rating 0-100 (0 no damage, 100 complete death), 14 days after application
Summary of the method: as §2

[13] = system: barnyardgrass (Echinochloa crus-galli, ECHCG); experiment: as above; conditions: phytotoxicity rating 0-100 (0 no damage, 100 complete death), 14 days after application
Summary of the method: as §2

[14] = system: lambsquarters (Chenopodium album, CHEAL); experiment: as above; conditions: phytotoxicity rating 0-100 (0 no damage, 100 complete death), 14 days after application
Summary of the method: as §2

[15] = system: redroot pigweed (Amaranthus retroflexus, AMARE); experiment: as above; conditions: phytotoxicity rating 0-100 (0 no damage, 100 complete death), 14 days after application
Summary of the method: as §2

[16] = system: green foxtail (Setaria viridis, SETVI); experiment: as above; conditions: phytotoxicity rating 0-100 (0 no damage, 100 complete death), 14 days after application
Summary of the method: as §2

[17] = system: sicklepod (Cassia obtusifolia, CASOB); experiment: as above; conditions: phytotoxicity rating 0-100 (0 no damage, 100 complete death), 14 days after application
Summary of the method: as §2

[18] = system: large crabgrass (Digitaria sanguinalis, DIGSA); experiment: as above; conditions: phytotoxicity rating 0-100 (0 no damage, 100 complete death), 14 days after application
Summary of the method: as §2

[19] = system: field corn (Zea mays L., var. Dekalb 535, CORN); experiment: Pre-emerge test, crop safety; conditions: pre-emerge, rated 14 days after application, 0 = no damage, 100 = complete death
Summary of the method: as §2

[20] = system: upland rice (Oryza sp., var. Tebonnet, RICE); experiment: Pre-emerge test, crop safety; conditions: pre-emerge, rated 14 days after application, 0 = no damage, 100 = complete death
Summary of the method: as §2

[21] = system: field corn (Zea mays L., var. Dekalb 535, CORN); experiment: Post-emerge test, crop safety; conditions: phytotoxicity rating 0-100 (0 no damage, 100 complete death), 14 days after application
Summary of the method: as §1

[22] = system: upland rice (Oryza sp., var. Tebonnet, RICE); experiment: Post-emerge test, crop safety; conditions: phytotoxicity rating 0-100 (0 no damage, 100 complete death), 14 days after application
Summary of the method: as §1

[23] = system: redroot pigweed (Amaranthus retroflexus, AMARE); experiment: Pre-emerge test, greenhouse herbicide activity screening; conditions: pre-emerge, rated 14 days after application, 0 = no damage, 100 = complete death
Summary of the method: as §2

## CCOC(=O)C(C)Nc1cc(Cl)cc(F)c1-n1c(=O)cc(C(F)(F)F)n(C)c1=O (stereo not shown) [Compound 1-54]
[1]; 63 g ai/ha
  Pre-emerge Herbicidal Activity IPOHE (phytotoxicity rating, scale 0-100): 100
[1]; 250 g ai/ha
  Pre-emerge Herbicidal Activity IPOHE (phytotoxicity rating, scale 0-100): 100
[2]; 63 g ai/ha
  Pre-emerge Herbicidal Activity AMBEL (phytotoxicity rating, scale 0-100): 100
[2]; 250 g ai/ha
  Pre-emerge Herbicidal Activity AMBEL (phytotoxicity rating, scale 0-100): 100
[3]; 63 g ai/ha
  Pre-emerge Herbicidal Activity ABUTH (phytotoxicity rating, scale 0-100): 100
[3]; 250 g ai/ha
  Pre-emerge Herbicidal Activity ABUTH (phytotoxicity rating, scale 0-100): 100
[4]; 63 g ai/ha
  Pre-emerge Herbicidal Activity ECHCG (phytotoxicity rating, scale 0-100): 45
[4]; 250 g ai/ha
  Pre-emerge Herbicidal Activity ECHCG (phytotoxicity rating, scale 0-100): 100
[5]; 63 g ai/ha
  Pre-emerge Herbicidal Activity CHEAL (phytotoxicity rating, scale 0-100): 100
[5]; 250 g ai/ha
  Pre-emerge Herbicidal Activity CHEAL (phytotoxicity rating, scale 0-100): 100
[6]; 63 g ai/ha
  Pre-emerge Herbicidal Activity SORHA (phytotoxicity rating, scale 0-100): 80
[6]; 250 g ai/ha
  Pre-emerge Herbicidal Activity SORHA (phytotoxicity rating, scale 0-100): 100
[7]; 63 g ai/ha
  Pre-emerge Herbicidal Activity SETVI (phytotoxicity rating, scale 0-100): 90
[7]; 250 g ai/ha
  Pre-emerge Herbicidal Activity SETVI (phytotoxicity rating, scale 0-100): 100
[8]; 63 g ai/ha
  Pre-emerge Herbicidal Activity CASOB (phytotoxicity rating, scale 0-100): 30
[8]; 250 g ai/ha
  Pre-emerge Herbicidal Activity CASOB (phytotoxicity rating, scale 0-100): 80
[9]; 63 g ai/ha
  Pre-emerge Herbicidal Activity DIGSA (phytotoxicity rating, scale 0-100): 80
[9]; 250 g ai/ha
  Pre-emerge Herbicidal Activity DIGSA (phytotoxicity rating, scale 0-100): 100
[10]; 63 g ai/ha
  Post-emerge Herbicidal Activity IPOHE: 100
[10]; 250 g ai/ha
  Post-emerge Herbicidal Activity IPOHE: 100
[11]; 63 g ai/ha
  Post-emerge Herbicidal Activity AMBEL: 100
[11]; 250 g ai/ha
  Post-emerge Herbicidal Activity AMBEL: 100
[12]; 63 g ai/ha
  Post-emerge Herbicidal Activity ABUTH: 100
[12]; 250 g ai/ha
  Post-emerge Herbicidal Activity ABUTH: 100
[13]; 63 g ai/ha
  Post-emerge Herbicidal Activity ECHCG: 20
[13]; 250 g ai/ha
  Post-emerge Herbicidal Activity ECHCG: 75
[14]; 63 g ai/ha
  Post-emerge Herbicidal Activity CHEAL: 100
[14]; 250 g ai/ha
  Post-emerge Herbicidal Activity CHEAL: 100
[15]; 63 g ai/ha
  Post-emerge Herbicidal Activity AMARE: 100
[15]; 250 g ai/ha
  Post-emerge Herbicidal Activity AMARE: 100
[16]; 63 g ai/ha
  Post-emerge Herbicidal Activity SETVI: 40
[16]; 250 g ai/ha
  Post-emerge Herbicidal Activity SETVI: 60
[17]; 63 g ai/ha
  Post-emerge Herbicidal Activity CASOB: 90
[17]; 250 g ai/ha
  Post-emerge Herbicidal Activity CASOB: 100
[18]; 63 g ai/ha
  Post-emerge Herbicidal Activity DIGSA: 40
[18]; 250 g ai/ha
  Post-emerge Herbicidal Activity DIGSA: 70
[19]; 63 g ai/ha
  Pre-emerge crop damage CORN (phytotoxicity rating, scale 0-100): 95
[19]; 250 g ai/ha
  Pre-emerge crop damage CORN (phytotoxicity rating, scale 0-100): 99
[20]; 63 g ai/ha
  Pre-emerge crop damage RICE (phytotoxicity rating, scale 0-100): 60
[20]; 250 g ai/ha
  Pre-emerge crop damage RICE (phytotoxicity rating, scale 0-100): 95
[21]; 63 g ai/ha
  Post-emerge Herbicidal Activity CORN (crop damage): 50
[21]; 250 g ai/ha
  Post-emerge Herbicidal Activity CORN (crop damage): 70
[22]; 63 g ai/ha
  Post-emerge Herbicidal Activity RICE (crop damage): 40
[22]; 250 g ai/ha
  Post-emerge Herbicidal Activity RICE (crop damage): 45
[23]; 63 g ai/ha
  Pre-emerge Herbicidal Activity AMARE (phytotoxicity rating, scale 0-100): 100
[23]; 250 g ai/ha
  Pre-emerge Herbicidal Activity AMARE (phytotoxicity rating, scale 0-100): 100
